Laboratory results as given in patent US10770169B2, “Method of providing a treatment to a subject based on a dynamic pathway map” (THE REGENTS OF THE UNIVERSITY OF CALIFORNIA, priority 2010, dated 2020).
Where a name gives a salt, the structure may show the parent alone. Read-outs that look alike come from different tables or passages of the source.

System: panel of 55 breast cancer cell lines
Test: Cell growth inhibition assay (Cell Titer Glo, 72 h, 9 doses; GI50, TGI, LC50)
Assay type: cell-based, human
Details: Homo sapiens, read-out: GI50 (converted)
[1] = AU565, AU565 cell line, censored GI50 values
[2] = BT-20, BT20 cell line, censored GI50 values
[3] = CAMA-1, CAMA1 cell line, censored GI50 values
[4] = HCC38, HCC38 cell line, censored GI50 values
[5] = HCC70, HCC70 cell line, censored GI50 values
[6] = HCC1143, HCC1143 cell line, censored GI50 values
[7] = HCC1187, HCC1187 cell line, censored GI50 values
[8] = HCC1419, HCC1419 cell line, censored GI50 values
[9] = HCC2185 cell line, censored GI50 values
[10] = MDA-MB-134-VI, MDAMB134VI cell line, censored GI50 values
[11] = MDA-MB-175-VII, MDAMB175VII cell line, censored GI50 values
[12] = MDA-MB-231, MDAMB231 cell line, censored GI50 values
[13] = MDA-MB-361, MDAMB361 cell line, censored GI50 values
[14] = MDA-MB-415, MDAMB415 cell line, censored GI50 values
[15] = MDA-MB-453, MDAMB453 cell line, censored GI50 values
[16] = MDA-MB-468, MDAMB468 cell line, censored GI50 values
[17] = SUM52PE, SUM52PE cell line, censored GI50 values
[18] = SUM149PT, SUM149PT cell line, censored GI50 values
[19] = SUM1315MO2, SUM1315MO2 cell line, censored GI50 values
[20] = SUM-159-PT, SUM159PT cell line, censored GI50 values
[21] = T47D, T47D cell line, censored GI50 values
[22] = UACC-812, UACC812 cell line, censored GI50 values
[23] = ZR-75-1, ZR751 cell line, censored GI50 values
[24] = BT-474, BT474 cell line, censored GI50 values
[25] = BT-483, BT483 cell line, censored GI50 values
[26] = HCC1395, HCC1395 cell line, censored GI50 values
[27] = HCC1428, HCC1428 cell line, censored GI50 values
[28] = HCC1500, HCC1500 cell line, censored GI50 values
[29] = HCC1806, HCC1806 cell line, censored GI50 values
[30] = HCC1937, HCC1937 cell line, censored GI50 values
[31] = HCC1954, HCC1954 cell line, censored GI50 values
[32] = SK-BR-3, SKBR3 cell line, censored GI50 values

For `Cc1cncc2cccc(S(=O)(=O)N3CCCN(C(=O)CN)C[C@@H]3C)c12` [Glycyl-H-1152], the GI50 [1] was 7.24 µM, the GI50 (AU565, cell line AU565) was 7.24 µM and the GI50 [2] was 7.08 µM. It also gave a GI50 (BT-20, cell line BT20) of 7.08 µM, a GI50 (BT-474, cell line BT474) of 66.1 µM and a GI50 (BT-483, cell line BT483) of 44.7 µM. For the same molecule, the GI50 [3] was 8.13 µM, the GI50 (CAMA-1, cell line CAMA1) was 8.13 µM and the GI50 [4] was 1.02 µM. The GI50 (HCC38, cell line HCC38) was 1.02 µM, the GI50 [5] was 0.813 µM and the GI50 (HCC70, cell line HCC70) was 0.813 µM. For the same molecule, the GI50 [6] was 15.8 µM, the GI50 (HCC1143, cell line HCC1143) was 15.8 µM and the GI50 [7] was 0.832 µM. The GI50 (HCC1187, cell line HCC1187) was 0.832 µM, the GI50 [8] was 17 µM and the GI50 (HCC1419, cell line HCC1419) was 17 µM. The GI50 (HCC1428, cell line HCC1428) was 50.1 µM, the GI50 (HCC1500, cell line HCC1500) was 66.1 µM and the GI50 (HCC1937, cell line HCC1937) was 66.1 µM. It also gave a GI50 (HCC1954, cell line HCC1954) of 33.1 µM, a GI50 [9] of 2.88 µM and a GI50 (MCF7, cell line MCF7) of 21.4 µM. It also gave a GI50 [10] of 1.17 µM, a GI50 [11] of 33.1 µM and a GI50 [12] of 22.9 µM. It also gave a GI50 (MDA-MB-231, cell line MDAMB231) of 22.9 µM, a GI50 [13] of 33.1 µM and a GI50 (MDA-MB-361, cell line MDAMB361) of 33.1 µM. The GI50 [14] was 33.1 µM, the GI50 (MDA-MB-415, cell line MDAMB415) was 33.1 µM and the GI50 (MDA-MB-436, cell line MDAMB436) was 43.7 µM. For the same molecule, the GI50 [15] was 28.2 µM, the GI50 (MDA-MB-453, cell line MDAMB453) was 28.2 µM and the GI50 [16] was 2.04 µM. The GI50 (MDA-MB-468, cell line MDAMB468) was 2.04 µM, the GI50 (SK-BR-3, cell line SKBR3) was 46.8 µM and the GI50 [17] was 9.12 µM. It also gave a GI50 (SUM52PE, cell line SUM52PE) of 9.12 µM, a GI50 [18] of 30.2 µM and a GI50 (SUM149PT, cell line SUM149PT) of 30.2 µM. For the same molecule, the GI50 [19] was 11 µM, the GI50 [20] was 1.74 µM and the GI50 (SUM-159-PT, cell line SUM159PT) was 1.74 µM. The GI50 [21] was 15.1 µM, the GI50 (T47D, cell line T47D) was 15.1 µM and the GI50 [22] was 38 µM. The GI50 (UACC-812, cell line UACC812) was 38 µM, the GI50 [23] was 3.55 µM and the GI50 (ZR-75-1, cell line ZR751) was 3.55 µM. The GI50 (ZR-75B, cell line ZR75B) was 66.1 µM, the GI50 (cell line HCC2185) was 2.88 µM and the GI50 (cell line HCC3153) was 33.1 µM. It also gave a GI50 (cell line MDAMB134V) of 1.17 µM, a GI50 (cell line MDAMB175V) of 33.1 µM and a GI50 (cell line SUM1315MO) of 11 µM.
For `CCCCCN(C)CCC(O)(P(=O)(O)O)P(=O)(O)O` [Ibandronate sodium salt], the GI50 [1] was 182 µM, the GI50 (AU565, cell line AU565) was 182 µM and the GI50 [2] was 20.4 µM. It also gave a GI50 (BT-20, cell line BT20) of 20.4 µM, a GI50 [24] of 105 µM and a GI50 [25] of 57.5 µM. For the same molecule, the GI50 [3] was 162 µM, the GI50 [4] was 57.5 µM and the GI50 [5] was 69.2 µM. The GI50 [6] was 43.7 µM, the GI50 [7] was 170 µM and the GI50 [26] was 7.41 µM. The GI50 [8] was 7.59 µM, the GI50 [27] was 129 µM and the GI50 [28] was 38 µM. For the same molecule, the GI50 [29] was 33.1 µM, the GI50 [30] was 40.7 µM and the GI50 [31] was 55 µM. It also gave a GI50 [9] of 15.1 µM, a GI50 (HCC3153 cell line, censored GI50 values) of 79.4 µM and a GI50 [10] of 69.2 µM. It also gave a GI50 [11] of 33.9 µM, a GI50 [12] of 74.1 µM and a GI50 [14] of 49 µM. It also gave a GI50 [15] of 110 µM, a GI50 [16] of 93.3 µM and a GI50 [32] of 89.1 µM. For the same molecule, the GI50 [17] was 35.5 µM, the GI50 [18] was 174 µM and the GI50 (SUM225CWN, SUM225CWN cell line, censored GI50 values) was 501 µM. It also gave a GI50 [19] of 50.1 µM, a GI50 [20] of 42.7 µM and a GI50 [21] of 34.7 µM. The GI50 [22] was 155 µM, the GI50 [23] was 69.2 µM and the GI50 (ZR-75B, ZR75B cell line, censored GI50 values) was 141 µM.
`COc1cc2ncnc(Nc3ccc(F)c(Cl)c3)c2cc1OCCCN1CCOCC1` [Iressa] was tested, and the GI50 (600MPE cell line, censored GI50 values) was 7.24 µM, the GI50 [1] was 1.07 µM and the GI50 [24] was 0.724 µM. For the same molecule, the GI50 [25] was 6.17 µM, the GI50 (BT-549, BT549 cell line, censored GI50 values) was 15.1 µM and the GI50 [5] was 17.4 µM. The GI50 [6] was 11.7 µM, the GI50 [26] was 7.08 µM and the GI50 [8] was 2.75 µM. It also gave a GI50 [27] of 10.7 µM, a GI50 [28] of 8.13 µM and a GI50 [29] of 4.68 µM. For the same molecule, the GI50 [30] was 8.32 µM, the GI50 [31] was 2.04 µM and the GI50 [9] was 9.33 µM. The GI50 (MDA-MB-157, MDAMB157 cell line, censored GI50 values) was 15.1 µM, the GI50 [11] was 0.209 µM and the GI50 [13] was 6.46 µM. The GI50 [14] was 7.41 µM, the GI50 [15] was 7.41 µM and the GI50 [32] was 2.82 µM. It also gave a GI50 [17] of 7.94 µM, a GI50 [18] of 2.88 µM and a GI50 (SUM185PE, SUM185PE cell line, censored GI50 values) of 20.9 µM. For the same molecule, the GI50 [19] was 2.95 µM, the GI50 [20] was 8.51 µM and the GI50 [21] was 15.8 µM. The GI50 (UACC-893, UACC893 cell line, censored GI50 values) was 1.15 µM.
